Experimental data as given in publication PMC11858513, “Antibiofilm Activities of Tritrpticin Analogs Against Pathogenic Pseudomonas aeruginosa PA01 Strains” (Molecules, 2025).
In brackets after ≈: the same amount, converted by molar mass. Residues, ends and D or L forms follow the SMILES beside them.

Columns and labels:
P. aeruginosa PAO1 GFP [1] = assay: MBIC, prevention of biofilm formation, GFP fluorescence method; assay type: cell-based, Pseudomonas aeruginosa; settings: Table 2, BM2 medium, mean of three biological replicates
Experimental: (§1) Figure 1 The MIC (A), MBIC (B) and MBEC (C) values for the tritrpticin analog peptides were assessed against Pa PAO1 GFP. The MIC values were determined by measuring the absorbance of bacterial cells at 600 nm. The MBIC and MBEC values were determined by recording the fluorescence at 480 nm and 530 nm from the biofilms of GFP-expressing PAO1. Three biological replicates were run for each test sample, and the mean was calculated for the recorded absorption or fluorescence values. In the graphs, the error bars represent the standard deviation (±SD).
(§2) Figure 2 The MIC (A), MBIC (B) and MBEC (C) values for the tritrpticin-Lys derivative peptides were assessed against Pa PAO1 GFP. The MIC values were determined by measuring the absorbance of bacterial cells at 600 nm. The MBIC and MBEC values were determined by recording the fluorescence at 480 nm and 530 nm from the biofilms of GFP-expressing PAO1. Three replicates were run for each sample, the values were averaged and the error bars represent the standard deviation (±SD).
(§3) The methods to determine the MIC, MBIC and MBEC have been described in detail in our previous publication. The green fluorescent protein (GFP)-producing P. aeruginosa and S. aureus strains that were used in this work were also described in the earlier publication. Fluorescence detection was used as the main method to estimate the number of cells entrapped in the biofilm matrix. The methodology used for evaluation of the antibiofilm properties against an original Pseudomonas PA01 strain by crystal violet dye staining and the use of the Calgary biofilm device has been described elsewhere. The regular PA01 strain was provided by Dr. J. Harrison, Calgary. All measurements were carried out on an Eppendorf AF2200 plate reader. Every 96-well plate included controls for bacterial cell growth without peptide treatment and media alone. All measurements were carried out in triplicate, and the values in the figures represent the average and the error bars are standard deviation.

S. aureus GFP [2] = assay: MBIC, GFP fluorescence method; assay type: cell-based, Staphylococcus aureus; settings: Table 4, Sa GFP, 10% TSB and 0.1% glucose, mean of three biological replicates
Experimental: as §1, with “3” for “1”, “Sa” for “Pa PAO1”, “Sa.” for “PAO1.”
as §3

P. aeruginosa PAO1 GFP [3] = assay: MIC against planktonic cells, absorbance at 600 nm; assay type: cell-based, Pseudomonas aeruginosa; settings: Table 2, BM2 medium, absorbance 600 nm, mean of three biological replicates
Experimental: as §1, §2, §3

P. aeruginosa PAO1 [4] = assay type: cell-based; settings: for MBRC (CV at 595 nm) LD50: PAO1; for MBIC (CV at 595 nm) LD50 / MBIC (CV at 595 nm) LD90 / MBRC (CV at 595 nm) LD90: Table 5, PAO1, 1x BM2, crystal violet at 595 nm, mean of three biological replicates; for MBRC (CV at 595 nm) LD90: minimum biofilm reduction concentration
Experimental: (§4) We note the close agreement with the MBIC and MBEC values determined by the fluorescence and CV methods, similar to what we found in our previous work for an S. aureus MRSA strain [23]. We also re-evaluated the MBEC values that are measured using the Calgary biofilm device (CBD), where biofilms form on pegs, rather than at the bottom of the 96-well plates. […] In particular, we find that the single Pro9Ala Tritrp-P9A-substituted version has better MIC, MBIC and MBEC activities than the parent peptide as well as the Tritrp-P59A analog with both prolines substituted to Ala.
(§5) Figure 4 The MIC (A), MBIC (B) and MBRC (C) values for the peptides were assessed against P. aeruginosa PAO1 in the presence of 1× BM2. The inhibition of planktonic cells, the inhibition of biofilm cells and the reduction in biofilm cells were determined for the peptides by recording of the planktonic cells at 600 nm and quantification of biofilms formed by Pa PAO1 using crystal violet at 595 nm, respectively. Three biological replicates were run for each test sample, and the mean was calculated for the recorded absorption values. Data points with error bars indicate the standard deviation (±SD).
(§6) Figure 6 The MIC (A), MBIC (B) and MBEC (C) values for the tritrpticin-Lys derivatives against P. aeruginosa PAO1 were assessed by the crystal violet (CV) assay for the measurement of inhibition of biofilm formation and eradication of biofilm cells, respectively. The biofilm cells were rinsed, stained with 0.1% crystal violet for 15 min and then rinsed again. The CV was released from biofilm cells by the addition of 95% ethanol and quantified by reading on a spectrometer at 595 nm. Three replicates were run for each sample, the values were averaged and the error bars represent the standard deviation (±SD).
as §3

P. aeruginosa PAO1 [5] = assay type: cell-based, Pseudomonas aeruginosa; settings: Table 5; PAO1, 1x BM2; biofilms on pegs, cells plated and counted; three biological replicates
Experimental: as §4
Figure 5 The MBEC values for the peptides were assessed against P. aeruginosa PAO1 in the presence of 1× BM2 medium. The eradication of biofilm cells was determined for the peptides using the counting of biofilm cells formed by Pa PAO1. Three biological replicates were run for each test sample, and the mean was calculated for counted cell values. Data points with error bars indicate the standard deviation (±SD).
as §3

S. aureus GFP [6] = assay: MIC against planktonic cells, absorbance at 600 nm; assay type: cell-based, Staphylococcus aureus; settings: Table 4; Sa GFP, 10% TSB and 0.1% glucose; absorbance 600 nm; mean of three biological replicates
Experimental: as §1, with “3” for “1”, “Sa” for “Pa PAO1”, “Sa.” for “PAO1.”
as §3

S. aureus GFP [7] = assay: MBEC, GFP fluorescence method; assay type: cell-based, Staphylococcus aureus; settings: Table 4, Sa GFP, 10% TSB and 0.1% glucose, mean of three biological replicates
Experimental: as §1, with “3” for “1”, “Sa” for “Pa PAO1”, “Sa.” for “PAO1.”
as §3

S. aureus GFP [8] = assay type: cell-based, Staphylococcus aureus; settings: Table 4; Sa GFP; lowest concentration of peptide with no bacterial growth seen on the spot agar plate
Description: as §3

P. aeruginosa PAO1 GFP [9] = assay: MBEC, biofilm eradication, GFP fluorescence method; assay type: cell-based, Pseudomonas aeruginosa; settings: Table 2, BM2 medium, mean of three biological replicates
Experimental: as §1, §2, §3

P. aeruginosa PAO1 [10] = assay type: cell-based, Pseudomonas aeruginosa; settings: Table 5; regular PAO1 (no GFP), 1x BM2; absorbance 600 nm; mean of three biological replicates
Experimental: as §5, §6, §3

Structure (SMILES)	MBIC at 488 and 530 nm LD50 (P. aeruginosa PAO1 GFP [1]) [µmol/L]	MBIC at 488 and 530 nm LD90 (P. aeruginosa PAO1 GFP [1]) [µmol/L]	MBIC at 488 and 530 nm LD50 (S. aureus GFP [2]) [µmol/L]	MBIC at 488 and 530 nm LD90 (S. aureus GFP [2]) [µmol/L]	MIC at 600 nm LD50 (P. aeruginosa PAO1 GFP [3]) [µM]	MIC at 600 nm LD90 (P. aeruginosa PAO1 GFP [3]) [µM]	MBRC (CV at 595 nm) LD50 (P. aeruginosa PAO1 [4]) [µmol/L]	MBIC (CV at 595 nm) LD50 (P. aeruginosa PAO1 [4]) [µmol/L]	MBIC (CV at 595 nm) LD90 (P. aeruginosa PAO1 [4]) [µmol/L]	MBRC (CV at 595 nm) LD90 (P. aeruginosa PAO1 [4]) [µmol/L]	MBEC from Calgary Biofilm Device (CBD) LD50 (P. aeruginosa PAO1 [5]) [µmol/L]	MBEC from Calgary Biofilm Device (CBD) LD90 (P. aeruginosa PAO1 [5]) [µmol/L]	MIC at 600 nm LD50 (S. aureus GFP [6]) [µM]	MIC at 600 nm LD90 (S. aureus GFP [6]) [µM]	MBEC at 488 and 530 nm LD50 (S. aureus GFP [7]) [µmol/L]	MBEC at 488 and 530 nm LD90 (S. aureus GFP [7]) [µmol/L]	MBC Agar Plate (S. aureus GFP [8]) [µM]	MBEC at 488 and 530 nm LD50 (P. aeruginosa PAO1 GFP [9]) [µmol/L]	MBEC at 488 and 530 nm LD90 (P. aeruginosa PAO1 GFP [9]) [µmol/L]	MIC at 600 nm LD50 (P. aeruginosa PAO1 [10]) [µM]	also measured
CC(C)C[C@H](NC(=O)[C@H](Cc1ccccc1)NC(=O)[C@@H]1CCCN1C(=O)[C@H](Cc1c[nH]c2ccccc12)NC(=O)[C@H](Cc1c[nH]c2ccccc12)NC(=O)[C@H](Cc1c[nH]c2ccccc12)NC(=O)[C@H](C)NC(=O)[C@H](Cc1ccccc1)NC(=O)[C@H](CCCNC(=N)N)NC(=O)[C@H](CCCNC(=N)N)NC(=O)[C@@H](N)C(C)C)C(=O)N[C@@H](CCCNC(=N)N)C(=O)N[C@@H](CCCNC(=N)N)C(N)=O [Tritrp-P5A] (H-VRRFAWWWPFLRR-NH2)	4	8	1	4	4 (≈ 7.5 µg/mL)	8 (≈ 15 µg/mL)	32	8	8	32	32	128	1 (≈ 1.88 µg/mL)	2 (≈ 3.75 µg/mL)	2	4	4 (≈ 7.5 µg/mL)	64	64	4 (≈ 7.5 µg/mL)	MIC at 600 nm LD90 (P. aeruginosa PAO1 [10]): 8 µM (≈ 15 µg/mL)
CC(C)C[C@H](NC(=O)[C@H](Cc1ccccc1)NC(=O)[C@H](C)NC(=O)[C@H](Cc1c[nH]c2ccccc12)NC(=O)[C@H](Cc1c[nH]c2ccccc12)NC(=O)[C@H](Cc1c[nH]c2ccccc12)NC(=O)[C@@H]1CCCN1C(=O)[C@H](Cc1ccccc1)NC(=O)[C@H](CCCCN)NC(=O)[C@H](CCCCN)NC(=O)[C@@H](N)C(C)C)C(=O)N[C@@H](CCCCN)C(=O)N[C@@H](CCCCN)C(N)=O [Tritrp-P9A-Lys] (H-VKKFPWWWAFLKK-NH2)	8	8	2	4	4 (≈ 7.05 µg/mL)	8 (≈ 14.1 µg/mL)	32	8	16	64	64	64	1 (≈ 1.76 µg/mL)	4 (≈ 7.05 µg/mL)	1	8	8 (≈ 14.1 µg/mL)	4	64	4 (≈ 7.05 µg/mL)	MIC at 600 nm LD90 (P. aeruginosa PAO1 [10]): 8 µM (≈ 14.1 µg/mL)
CC(C)C[C@H](NC(=O)[C@H](Cc1ccccc1)NC(=O)[C@H](C)NC(=O)[C@H](Cc1c[nH]c2ccccc12)NC(=O)[C@H](Cc1c[nH]c2ccccc12)NC(=O)[C@H](Cc1c[nH]c2ccccc12)NC(=O)[C@H](C)NC(=O)[C@H](Cc1ccccc1)NC(=O)[C@H](CCCCN)NC(=O)[C@H](CCCCN)NC(=O)[C@@H](N)C(C)C)C(=O)N[C@@H](CCCCN)C(=O)N[C@@H](CCCCN)C(N)=O [Tritrp-P59A-Lys] (H-VKKFAWWWAFLKK-NH2)	4	4	2	2	4 (≈ 6.95 µg/mL)	4 (≈ 6.95 µg/mL)	64	4	8	64	64	128	2 (≈ 3.47 µg/mL)	2 (≈ 3.47 µg/mL)	2	4	4 (≈ 6.95 µg/mL)	32	128	4 (≈ 6.95 µg/mL)	MIC at 600 nm LD90 (P. aeruginosa PAO1 [10]): 8 µM (≈ 13.9 µg/mL)
CC(C)C[C@H](NC(=O)[C@H](Cc1ccccc1)NC(=O)[C@@H]1CCCN1C(=O)[C@H](Cc1ccccc1)NC(=O)[C@H](Cc1ccccc1)NC(=O)[C@H](Cc1ccccc1)NC(=O)[C@@H]1CCCN1C(=O)[C@H](Cc1ccccc1)NC(=O)[C@H](CCCNC(=N)N)NC(=O)[C@H](CCCNC(=N)N)NC(=O)[C@@H](N)C(C)C)C(=O)N[C@@H](CCCNC(=N)N)C(=O)N[C@@H](CCCNC(=N)N)C(N)=O [Tritrp-W678F] (H-VRRFPFFFPFLRR-NH2)	32	64	1	1	32 (≈ 57.1 µg/mL)	>64	128	64	>64	>128	128	128	0.5 (≈ 0.892 µg/mL)	0.5 (≈ 0.892 µg/mL)	2	4	8 (≈ 14.3 µg/mL)	32	64	32 (≈ 57.1 µg/mL)	MIC at 600 nm LD90 (P. aeruginosa PAO1 [10]): >64 µM
